Experiments:
MCF7 CARM1 KO cells = test: Quantitative MS of ADMA-containing peptides in MCF7 CARM1 KO cells expressing CARM1 28-608 or CARM1 140-608, and in CARM1 KO; format: cell-based, human
MCF7 cells = test: Quantitative nanoLC-MS/MS (TMT) of ADMA-containing peptides, CARM1 KO vs parental; format: cell-based, human; set-up: Fold change KO/WT: scale not given here
[1] = difference of log2 means, CARM1 140-608 vs WT
[2] = difference of log2 means, KO vs WT
[3] = MCF7 CARM1 knockout vs wild type, 3 biological replicates each, values are on log2 scale
[4] = ratio on log2 scale, mean of 3 replicates
[5] = MCF7, CARM1 knockout vs wild type, n = 3 each
[6] = CARM1 140-608 vs WT, mean of 3 replicates, log2
[7] = KO vs WT, mean of 3 replicates, log2
[8] = MCF7, CARM1 KO vs WT, three biological replicates each
[9] = CARM1 140-608 versus WT, mean of three replicates (log2)
[10] = KO versus WT, mean of three replicates (log2)
[11] = MCF7, CARM1 KO (KO1-KO3) vs wild type (WT1-WT3)
[12] = CARM1 140-608 versus WT, difference of mean log2 values
[13] = CARM1 KO versus WT, difference of mean log2 values
[14] = CARM1 KO vs wild type MCF7 cells, 3 biological replicates each
[15] = CARM1 140-608 vs WT, mean of 3 replicates (log2 scale)
[16] = KO vs WT, mean of 3 replicates (log2 scale)
[17] = log2 scale ratio, mean of n = 3
[18] = ADMA-containing peptide, MCF7, CARM1 knockout (KO1-3) vs wild type (WT1-3), TMT 6-plex experiment #1

Substance: QSSATSSFGGLGGGSVrFGPGVAFR
- CARM1 140-608/WT (MCF7 CARM1 KO cells; [1]): -2.723
- KO/WT (MCF7 CARM1 KO cells; [2]): -4.023
- Fold change KO/WT (MCF7 cells; [3]): -2.868

Substance: CrQPAPPTSQPPrAQPFAQPPGPWPLSSPGPrLVFNR
- CARM1 140-608/WT (MCF7 CARM1 KO cells; [4]): -1.684
- KO/WT (MCF7 CARM1 KO cells; [4]): -3.117
- Fold change KO/WT (MCF7 cells; [5]): -3.117

Substance: MRPQPYGGTNPYSQQQGPPSGPQQGHGYPGQPYGSQTPQrYPMTMQGR
- CARM1 140-608/WT (MCF7 CARM1 KO cells; [6]): -0.1711
- KO/WT (MCF7 CARM1 KO cells; [7]): -1.781
- Fold change KO/WT (MCF7 cells; [8]): -2.959

Substance: FFEAAAGSGSSAGAGDGAGPQrLPEPGGRPR
- CARM1 140-608/WT (MCF7 CARM1 KO cells; [1]): -1.027
- KO/WT (MCF7 CARM1 KO cells; [2]): -1.059
- Fold change KO/WT (MCF7 cells; ADMA-containing peptide, CARM1 knockout (KO) vs wild type (WT) MCF7 cells, 6-plex TMT experiment #1, three biological replicates each, sheet "MCF7"): -1.059

Substance: VSTSGPrAFSSR
- CARM1 140-608/WT (MCF7 CARM1 KO cells; [1]): -3.216
- KO/WT (MCF7 CARM1 KO cells; [2]): -3.388
- Fold change KO/WT (MCF7 cells; [3]): -3.388

Substance: rPFGISALIVGFDDDGISR
- CARM1 140-608/WT (MCF7 CARM1 KO cells; [9]): -0.5842
- KO/WT (MCF7 CARM1 KO cells; [10]): -1.577
- Fold change KO/WT (MCF7 cells; [11]): -1.577

Substance: SLCASTLTVSSGSSrGSLASSrGSLASSR
- CARM1 140-608/WT (MCF7 CARM1 KO cells; [12]): -0.3572
- KO/WT (MCF7 CARM1 KO cells; [13]): -0.04724
- Fold change KO/WT (MCF7 cells; [14]): -0.6221

Substance: LQLGTPPPLLAArLVPPR
- CARM1 140-608/WT (MCF7 CARM1 KO cells; [9]): -3.287
- KO/WT (MCF7 CARM1 KO cells; [10]): -5.072
- Fold change KO/WT (MCF7 cells; [11]): -2.7388

Substance: QLrYQQPGPGSSPSSFLLK
- CARM1 140-608/WT (MCF7 CARM1 KO cells; [6]): -1.181
- KO/WT (MCF7 CARM1 KO cells; [7]): -5.114
- Fold change KO/WT (MCF7 cells; [8]): -4.8874

Substance: FCAFGGNPPVTGPrSALAPNLLTSGK
- CARM1 140-608/WT (MCF7 CARM1 KO cells; [6]): -3.4143
- KO/WT (MCF7 CARM1 KO cells; [7]): -5.047
- Fold change KO/WT (MCF7 cells; [8]): -4.63

Substance: LAQNAArIPGIPrHSGPQYSMMQPHLQR
- CARM1 140-608/WT (MCF7 CARM1 KO cells; [12]): -0.4462
- KO/WT (MCF7 CARM1 KO cells; [13]): -2.068
- Fold change KO/WT (MCF7 cells; [14]): -2.189

Substance: APGPrGSYLGGYSAGR
- CARM1 140-608/WT (MCF7 CARM1 KO cells; [15]): -0.09328
- KO/WT (MCF7 CARM1 KO cells; [16]): -0.2416
- Fold change KO/WT (MCF7 cells; [11]): -0.1976

Substance: VQTHLENPTrYHLQQAR
- CARM1 140-608/WT (MCF7 CARM1 KO cells; [17]): -1.396
- KO/WT (MCF7 CARM1 KO cells; [17]): -1.173
- Fold change KO/WT (MCF7 cells; [18]): -1.173

Substance: LITFQLrHILK
- CARM1 140-608/WT (MCF7 CARM1 KO cells; [12]): -4.254
- KO/WT (MCF7 CARM1 KO cells; [13]): -5.219
- Fold change KO/WT (MCF7 cells; [18]): -5.219

Substance: QSHTLPFPPPPALPFYPASAYPrHFGPVPPSQGR
- CARM1 140-608/WT (MCF7 CARM1 KO cells; [4]): -0.8989
- KO/WT (MCF7 CARM1 KO cells; [4]): -1.33
- Fold change KO/WT (MCF7 cells; [5]): -1.33

Substance: SVVESSAPGANNLQVNALVArLPLLLPR
- CARM1 140-608/WT (MCF7 CARM1 KO cells; [15]): -0.343
- KO/WT (MCF7 CARM1 KO cells; [16]): -2.6091
- Fold change KO/WT (MCF7 cells; [11]): -2
